Test results from patent US20240174622A1, “COMPOUND AND RADIOACTIVE LABELING COMPOUND” (NIHON MEDI-PHYSICS CO., LTD., priority 2021, published 2024).

Legend:
[1] = system: PC-3 tumor-transplanted mouse; assay: Internal radioactivity distribution using PC-3 tumor-transplanted mouse; format: in vivo
Protocol: (§1) The animal test was performed in compliance with the guidelines of Kyoto University Animal Experiment Committee. Male CB17/IcrJcl-Prkdc^scid mice were purchased from CLEA Japan, Inc. The animals were kept under 12 h/12 h, day/night cycle conditions and fed ad libitum with food and water. LNCaP cells (1.0×10^7 cells/mouse) or PC-3 cells (1.0×10^7 cells/mouse) were suspended in a mixture of PBS and Matrigel manufactured by Corning Life Sciences (1:1, 150 μL) and the suspension was subcutaneously transplanted to the right shoulder of mice under isoflurane anesthesia. Thereafter, the mice were kept for 40 to 60 days.
LNCaP or PC-3 tumor-implanted mice were administered saline solutions (185 kBq, 100 μL) of [^111In]In-PSMA-DA1 or [^111In]In-PSMA-DB from the tail vein (n=3 each). Mice were euthanized 1, 4, 24, 48, 96, and 192 hours after administration. Thereafter, blood and each organ were recovered, and the mass and radioactivity of the organs were measured.
The percentage (% ID) of the radioactivity amount to the administered radioactivity amount (injected dose) is shown as the value (% ID/g) divided by the blood mass or the organ mass (g).
as §1, with “LNCaP cells (4.3×10^6 cells/mouse) or” for “LNCaP cells (1.0×10^7 cells/mouse) or”, “PC-3 cells (3.3×10^6 cells/mouse) were” for “PC-3 cells (1.0×10^7 cells/mouse) were”, “shoulder of CB17/IcrJcl-Prkdc^scid mice under” for “shoulder of mice under”
Mice were euthanized 1, 4, 24, 48, 96, and 192 hours after administration. Thereafter, blood and each organ were recovered, and the mass and radioactivity of the organs were measured.
The results are shown in Table 13 (Mean value±standard deviation, n=3).

[2] = system: LNCaP tumor-transplanted mouse; assay: Internal radioactivity distribution using LNCaP tumor-transplanted mouse; format: in vivo
Procedure, shortened: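 Biodistribution is given as percent injected dose per gram of tissue, measured in blood and organs harvested at time points from 1 h to 192 h. Radiotracers were given by tail-vein injection in saline at 185–259 kBq, n=2–3. Hosts were male CB17 SCID mice carrying LNCaP or PC-3 tumours implanted s.c. in Matrigel 40–60 days earlier.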

[3] = 1 h after administration, PC-3 tumor-transplanted mice

## O=C([O-])CN1CCN(C(CCC(=O)NCCCC[C@H](NC(=O)N[C@@H](CCC(=O)O)C(=O)O)C(=O)O)C(=O)[O-])CCN(CC(=O)[O-])CCN(C(CCC(=O)Nc2ccccc2)C(=O)[O-])CC1.[111In+3] (stereo partly drawn) [[^111In]In-PSMA-DB, reference compound]
[1]; [3]
  Blood: 1.92 ± 0.27 % ID/g
  Brain: 0.06 ± 0.00 % ID/g
  Heart: 0.49 ± 0.05 % ID/g
  Intestine: 0.48 ± 0.04 % ID/g
  Kidney: 49.5 ± 12.6 % ID/g
  Liver: 0.62 ± 0.03 % ID/g
  Lung: 1.36 ± 0.23 % ID/g
  Muscle: 0.21 ± 0.08 % ID/g
  PC-3 Tumor: 0.61 ± 0.06 % ID/g
  Pancreas: 0.44 ± 0.06 % ID/g
  Spleen: 2.57 ± 0.39 % ID/g
  Stomach (% ID): 0.12 ± 0.04 % ID
[1]; mouse, in vivo
  accumulation at the PC-3 tumor compared with the LNCaP tumor at the same time point (in words): less accumulated
[2]; 1 h after administration
  Blood: 3.33 ± 0.21 % ID/g
  Brain: 0.06 ± 0.01 % ID/g
  Heart: 0.87 ± 0.33 % ID/g
  Intestine: 0.59 ± 0.14 % ID/g
  Kidney: 59.2 ± 35.2 % ID/g
  LNCaP Tumor: 3.36 ± 0.04 % ID/g
  Liver: 0.91 ± 0.20 % ID/g
  Lung: 2.24 ± 0.60 % ID/g
  Muscle: 0.23 ± 0.68 % ID/g
  Pancreas: 0.74 ± 0.25 % ID/g
  Spleen: 3.05 ± 0.53 % ID/g
  Stomach (% ID): 0.10 ± 0.04 % ID
[2]; 4 h after administration
  Blood: 2.00 ± 0.29 % ID/g
  Brain: 0.05 ± 0.00 % ID/g
  Heart: 0.60 ± 0.08 % ID/g
  Intestine: 1.05 ± 0.10 % ID/g
  Kidney: 22.7 ± 9.69 % ID/g
  LNCaP Tumor: 2.50 ± 0.50 % ID/g
  Liver: 0.95 ± 0.05 % ID/g
  Lung: 1.56 ± 0.07 % ID/g
  Muscle: 0.21 ± 0.04 % ID/g
  Pancreas: 0.54 ± 0.22 % ID/g
  Spleen: 2.39 ± 0.05 % ID/g
  Stomach (% ID): 0.13 ± 0.03 % ID
[2]; 24 h after administration
  Blood: 0.68 ± 0.17 % ID/g
  Brain: 0.07 ± 0.02 % ID/g
  Heart: 0.43 ± 0.07 % ID/g
  Intestine: 1.00 ± 0.44 % ID/g
  Kidney: 13.2 ± 2.41 % ID/g
  LNCaP Tumor: 2.09 ± 0.39 % ID/g
  Liver: 1.55 ± 0.32 % ID/g
  Lung: 0.97 ± 0.15 % ID/g
  Muscle: 0.21 ± 0.07 % ID/g
  Pancreas: 0.71 ± 0.10 % ID/g
  Spleen: 3.37 ± 0.75 % ID/g
  Stomach (% ID): 0.16 ± 0.05 % ID
[2]; 48 h after administration
  Blood: 0.27 ± 0.16 % ID/g
  Brain: 0.03 ± 0.02 % ID/g
  Heart: 0.32 ± 0.05 % ID/g
  Intestine: 0.79 ± 0.21 % ID/g
  Kidney: 8.58 ± 2.02 % ID/g
  LNCaP Tumor: 1.69 ± 0.77 % ID/g
  Liver: 1.28 ± 0.16 % ID/g
  Lung: 0.66 ± 0.24 % ID/g
  Muscle: 0.15 ± 0.06 % ID/g
  Pancreas: 0.71 ± 0.17 % ID/g
  Spleen: 2.63 ± 0.83 % ID/g
  Stomach (% ID): 0.07 ± 0.02 % ID
[2]; 96 h after administration
  Blood: 0.14 ± 0.04 % ID/g
  Brain: 0.09 ± 0.05 % ID/g
  Heart: 0.40 ± 0.12 % ID/g
  Intestine: 0.41 ± 0.17 % ID/g
  Kidney: 7.04 ± 3.28 % ID/g
  LNCaP Tumor: 1.05 ± 0.03 % ID/g
  Liver: 1.59 ± 0.57 % ID/g
  Lung: 0.70 ± 0.15 % ID/g
  Muscle: 0.14 ± 0.08 % ID/g
  Pancreas: 0.85 ± 0.39 % ID/g
  Spleen: 2.82 ± 0.87 % ID/g
  Stomach (% ID): 0.10 ± 0.03 % ID
[2]; 192 h after administration
  Blood: 0.07 ± 0.03 % ID/g
  Brain: 0.04 ± 0.00 % ID/g
  Heart: 0.33 ± 0.01 % ID/g
  Intestine: 0.13 ± 0.02 % ID/g
  Kidney: 3.47 ± 1.24 % ID/g
  LNCaP Tumor: 0.83 ± 0.11 % ID/g
  Liver: 1.20 ± 0.09 % ID/g
  Lung: 0.67 ± 0.05 % ID/g
  Muscle: 0.14 ± 0.09 % ID/g
  Pancreas: 1.04 ± 0.18 % ID/g
  Spleen: 3.46 ± 0.32 % ID/g
  Stomach (% ID): 0.05 ± 0.00 % ID
[2]; any time point
  retention in blood / accumulation at the LNCaP tumor against the comparator (in words): less accumulated
[2]; mouse, in vivo
  tumor/kidney ratio compared with [^111In]In-PSMA-DA1 (in words): lower
